Patent US20260083864A1, “CONTRAST AGENTS FOR USE IN DIAGNOSTIC COMPUTED TOMOGRAPHY IMAGING” (Bayer Aktiengesellschaft, priority 2022, published 2026)

Key:
[1] = Partition coefficient (log P butanol/buffer); type: physicochemical; conditions: 1-butanol / 50 mM Tris-HCl, pH 7.4, room temperature
[2] = tested on: freshly isolated rat hepatocytes; test: Uptake into freshly isolated rat hepatocytes; conditions: for Uptake rat hepatocytes: 100 μmol Gd/L, 10 min, 37° C., relative to RC1 (Gd-EOB-DTPA); for Inhibition Rifampicine: rat hepatocyte uptake, test item and Rifampicine 1:1, each 100 μM
[3] = Water solubility in aqueous buffer; conditions: aqueous buffer 10 mM Tris-HCl, pH 7.4, 20° C.
Experimental: The solid compounds were added stepwise to the buffer solution. More substance is added once all the suspended material is dissolved until an equilibrium between undissolved and dissolved substance is reached. The suspension was mixed using a shaker (Heidolph Reax 2000) and treated 5 min in an ultrasound bath (Bandelin, Sonorex Super RK255H).

OATP1B3 = target: T1, OATP1B3 (Homo sapiens, UniProt Q9NPD5); test: Uptake into stable transfected OATP1B3 HEK 293 cells; type: cell-based; conditions: for Uptake into OATP1B3-HEK 293 cells: 40 min incubation, relative to RC1 (Gd-EOB-DTPA); for Inhibition Rifampicine: uptake into OATP1B3-HEK 293 cells
T1 sequence (Q9NPD5 1-702): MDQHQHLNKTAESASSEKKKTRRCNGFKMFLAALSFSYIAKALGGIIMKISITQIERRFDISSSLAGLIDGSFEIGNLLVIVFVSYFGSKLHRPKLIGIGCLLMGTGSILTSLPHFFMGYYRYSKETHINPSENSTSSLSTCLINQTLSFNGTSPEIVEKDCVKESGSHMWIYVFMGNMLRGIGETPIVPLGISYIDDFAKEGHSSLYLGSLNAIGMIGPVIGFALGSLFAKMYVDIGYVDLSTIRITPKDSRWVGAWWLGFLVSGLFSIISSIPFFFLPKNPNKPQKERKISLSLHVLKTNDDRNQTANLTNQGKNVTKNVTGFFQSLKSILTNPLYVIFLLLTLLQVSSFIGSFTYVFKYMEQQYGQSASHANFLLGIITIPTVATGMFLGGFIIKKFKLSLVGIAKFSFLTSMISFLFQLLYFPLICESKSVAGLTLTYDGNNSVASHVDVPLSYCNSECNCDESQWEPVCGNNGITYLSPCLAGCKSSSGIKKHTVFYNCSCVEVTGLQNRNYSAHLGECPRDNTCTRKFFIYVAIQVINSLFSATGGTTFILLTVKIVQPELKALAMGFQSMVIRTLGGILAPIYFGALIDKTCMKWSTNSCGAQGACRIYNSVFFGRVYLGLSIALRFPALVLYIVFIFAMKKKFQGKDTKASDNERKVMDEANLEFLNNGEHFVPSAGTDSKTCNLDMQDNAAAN
Experimental: (§1) Cryopreserved cells were shortly thawed in water bath and diluted in 10 mL warm culture medium (37° C.). After medium change the cells were grown for 3d in a 25 cm^2 cell culture flask. After 3 to 5d the cells were transferred into 75 cm^2 flasks. […] All test items were prepared in transport buffer at a final concentration of 100 µM from stock solutions (180 to 500 mM concentration). The OATP1B3 HEK 293 cells were incubated with test solutions (test item in transport buffer 500 μL) for 40 min on a thermoshaker without shaking (PHMP, Fa. Grant Bio). Triplicates were performed for each test item. After incubation the cells were washed with 2 mL of cold PBS (+) buffer (Dulbeccos PBS+, Fa. Gibco). […] As a reference standard Gd-EOB-DTPA (gadoxetate) is used in the same well plate.

OATP1B1 = target: T2, OATP1B1 (Homo sapiens, UniProt Q9Y6L6); test: Uptake into stable transfected OATP1B1 HEK 293 cells; type: cell-based; conditions: for Uptake into OATP1B1-HEK 293 cells: 40 min incubation, relative to RC1 (Gd-EOB-DTPA); for Inhibition Rifampicine: uptake into OATP1B1-HEK 293 cells
T2 sequence (Q9Y6L6 1-691): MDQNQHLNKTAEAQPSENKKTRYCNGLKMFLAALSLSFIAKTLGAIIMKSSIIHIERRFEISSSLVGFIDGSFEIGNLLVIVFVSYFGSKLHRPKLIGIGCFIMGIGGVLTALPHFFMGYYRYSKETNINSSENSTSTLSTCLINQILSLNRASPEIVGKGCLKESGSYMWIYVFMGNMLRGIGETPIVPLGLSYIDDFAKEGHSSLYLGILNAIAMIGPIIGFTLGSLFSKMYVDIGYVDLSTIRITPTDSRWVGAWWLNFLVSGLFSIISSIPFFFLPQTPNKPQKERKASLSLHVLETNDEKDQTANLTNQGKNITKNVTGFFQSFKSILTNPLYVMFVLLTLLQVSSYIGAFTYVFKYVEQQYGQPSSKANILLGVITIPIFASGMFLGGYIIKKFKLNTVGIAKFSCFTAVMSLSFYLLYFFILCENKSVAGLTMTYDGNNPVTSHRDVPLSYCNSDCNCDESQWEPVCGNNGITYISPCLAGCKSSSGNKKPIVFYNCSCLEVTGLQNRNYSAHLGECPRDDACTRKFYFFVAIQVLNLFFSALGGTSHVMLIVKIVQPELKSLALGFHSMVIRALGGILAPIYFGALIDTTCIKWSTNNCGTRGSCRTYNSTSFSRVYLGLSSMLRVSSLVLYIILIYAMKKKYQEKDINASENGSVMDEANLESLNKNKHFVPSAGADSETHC
Experimental: as §1, with “M” for “µM”, “OATP1B1” for “OATP1B3”, “L)” for “μL)”

[4] = Relaxivity measurements at 1.41 T in human plasma; type: physicochemical; conditions: 37° C., normalized to Gd
Experimental: (§2) The T1 relaxation times were determined using the standard inversion recovery (IR) method with a fixed relaxation delay of at least 5×T1. The variable inversion time (TI) was calculated automatically by the standard software of the MiniSpec mq60 (8 steps). The T2 measurements were performed by using a Carr-Purcell-Meiboom-Gill (CPMG) pulse sequence, applying a relaxation delay of at least 5×T1.
Each relaxivity measurement was performed using three different Gd concentrations (3 concentrations between 0.05 and 2 mM).
(§3) The relaxivities n (where i=1, 2) were calculated based on the measured relaxation rates Ri in water and plasma: […]

[5] = Relaxivity measurements at 1.41 T in water; type: physicochemical; conditions: 37° C., normalized to Gd
Experimental: as §2, with “Relaxivity measurements at 1.41 T were performed using a MiniSpec mq60 spectrometer (Bruker Analytik, Karlsruhe, Germany) operating at a resonance frequency of 60 MHz and a temperature of 37° C. The T1” for “The T1”
Each relaxivity measurement was performed using three different Gd concentrations (3 concentrations between 0.05 and 2 mM). […] Human plasma preparation: For each experiment fresh blood was taken from a volunteer using 10 mL citrate-tubes (Sarstedt S-Monovette 02.1067.001, 10 mL, Citrate). The 10 mL citrate-tubes were carefully inverted 10 times to mix blood and anticoagulant and centrifuged for 15 min at 1811 g at RT (Eppendorf, Centrifuge 5810R).
as §3

| Compound | Log P (partition coefficient butanol/buffer) [1] | Uptake rat hepatocytes [2] | Inhibition Rifampicine [2] [% inhibition] | Solubility [3] [mM] | Uptake into OATP1B3-HEK 293 cells (OATP1B3) | Inhibition Rifampicine (OATP1B3) [% inhibition] | Uptake into OATP1B1-HEK 293 cells (OATP1B1) | Inhibition Rifampicine (OATP1B1) [% inhibition] | r1 human plasma [4] [L/mmol/s] | r1 water [5] [L/mmol/s] |
| --- | --- | --- | --- | --- | --- | --- | --- | --- | --- | --- |
| CCCCOc1ccc(CCCC[C@@H](C(=O)O)N2CCN([C@@H](CO)C(=O)[O-])CCN([C@@H](CO)C(=O)[O-])CCN([C@@H](CO)C(=O)[O-])CC2)cc1.[Gd+3] [Example 9, gadolinium (2S,2′S,2″S)-2,2′,2″-{10-[(1S)-5-(4-butoxyphenyl)-1-carboxypentyl]-1,4,7,10-tetraazacyclododecane-1,4,7-triyl}tris(3-hydroxypropanoate)] | 0.26 | 54 % of RC1 | 46 | 2 | 124 % of RC1 | 95 | 498 % of RC1 | 73 | – | – |
| CCOc1ccc(CCCC[C@@H](C(=O)O)N2CCN(CC(=O)[O-])CCN(CC(=O)[O-])CCN(CC(=O)[O-])CC2)cc1.[Gd+3] [Example 27, gadolinium 2,2′,2″-{10-[(1S)-1-carboxy-5-(4-ethoxyphenyl)pentyl]-1,4,7,10-tetraazacyclo-dodecane-1,4,7-triyl}triacetate] | −0.41 | 69 % of RC1 | 98 | >9 | 24 % of RC1 | 96 | 284 % of RC1 | 93 | – | – |
| CCOCCOCCOCCOc1ccc(C[C@H](C(=O)O)N2CCN(CC(=O)[O-])CCN(CC(=O)[O-])CCN(CC(=O)[O-])CC2)cc1.[Gd+3] [Example 12, gadolinium 2,2′,2″-{10-[(1R)-1-carboxy-2-(4-{2-[2-(2-ethoxyethoxy)ethoxy]ethoxy}phenyl)ethyl]-1,4,7,10-tetraazacyclododecane-1,4,7-triyl}triacetate] | −1.68 | 53 % of RC1 | 97 | – | 24 % of RC1 | 87 | 86 % of RC1 | 0 | 6.6 | 4.3 |
| CCOCCOCCOCCOc1ccc(C[C@@H](C(=O)O)N2CCN(CC(=O)[O-])CCN(CC(=O)[O-])CCN(CC(=O)[O-])CC2)c(OCCOCCOCCOCC)c1.[Gd+3] [Example 40, gadolinium 2,2′,2″-{10-[(1S)-2-(2,4-bis {2-[2-(2-ethoxyethoxy)ethoxy]ethoxy}phenyl)-1-carboxyethyl]-1,4,7,10-tetraazacyclododecane-1,4,7-triyl}triacetate] | −1.43 | 20 % of RC1 | 88 | – | – | – | – | – | 7.3 | 5.4 |
| CCOCCOCCOCCOc1ccc(C[C@@H](C(=O)O)N2CCN(CC(=O)[O-])CCN(CC(=O)[O-])CCN(CC(=O)[O-])CC2)cc1.[Gd+3] [Example 11, gadolinium 2,2′,2″-{10-[(1S)-1-carboxy-2-(4-{2-[2-(2-ethoxyethoxy)ethoxy]ethoxy}phenyl)ethyl]-1,4,7,10-tetraazacyclododecane-1,4,7-triyl}triacetate] | −1.68 | 39 % of RC1 | 93 | – | 16 % of RC1 | 73 | 154 % of RC1 | 40 | 6.3 | 4.3 |
| CCOCCOCCOc1ccc(CCC[C@@H](C(=O)O)N2CCN([C@H](CO)C(=O)[O-])CCN([C@H](CO)C(=O)[O-])CCN([C@@H](CO)C(=O)[O-])CC2)cc1.[Gd+3] [Example 49, gadolinium (2R,2′R)-2,2′-{7-[(1S)-1-carboxy-4-{4-[2-(2-ethoxyethoxy)ethoxy]phenyl}butyl]-10-[(1S)-1-carboxylato-2-hydroxyethyl]-1,4,7,10-tetraazacyclododecane-1,4-diyl}bis(3-hydroxypropanoate)] | – | – | – | >18 | – | 94 | – | 71 | – | – |
| CCOCCOCCOc1ccc(CCC[C@@H](C(=O)O)N2CCN([C@H](CO)C(=O)[O-])CCN([C@@H](CO)C(=O)[O-])CCN([C@@H](CO)C(=O)[O-])CC2)cc1.[Gd+3] [Example 50, gadolinium (2S,2'S)-2,2′-{7-[(1S)-1-carboxy-4-{4-[2-(2-ethoxyethoxy)ethoxy]phenyl}butyl]-10-[(1R)-1-carboxylato-2-hydroxyethyl]-1,4,7,10-tetraazacyclododecane-1,4-diyl}bis(3-hydroxypropanoate)] | – | – | – | >19 | – | 93 | – | 84 | – | – |
